Measured values taken from ChEMBL document CHEMBL5143749, “Discovery of Insulin/GLP-1/Glucagon Triagonists for the Treatment of Diabetes and Obesity” (ACS Med Chem Lett, 2022).

Assays:
Homo sapiens = species: Homo sapiens; assay: Selectivity ratio of EC50 for human […] expressed in frozen cells to EC50 for human GLP1R expressed in frozen cells; type: cell-based
[1] = target: Glucagon-like peptide 1 receptor (Homo sapiens, UniProt P43220); assay: Agonist activity at human GLP1R expressed in frozen cells assessed as measuring the cAMP level incubated for 1 hr by HitHunter chemiluminescence based assay; type: functional, cell-based
Glucagon receptor = Glucagon receptor (Homo sapiens, UniProt P47871); assay: Agonist activity at human GCGR expressed in frozen cells assessed as measuring the cAMP level incubated for 1 hr by HitHunter chemiluminescence based assay; type: functional, cell-based
Sequence of Glucagon receptor (P47871 whole entry): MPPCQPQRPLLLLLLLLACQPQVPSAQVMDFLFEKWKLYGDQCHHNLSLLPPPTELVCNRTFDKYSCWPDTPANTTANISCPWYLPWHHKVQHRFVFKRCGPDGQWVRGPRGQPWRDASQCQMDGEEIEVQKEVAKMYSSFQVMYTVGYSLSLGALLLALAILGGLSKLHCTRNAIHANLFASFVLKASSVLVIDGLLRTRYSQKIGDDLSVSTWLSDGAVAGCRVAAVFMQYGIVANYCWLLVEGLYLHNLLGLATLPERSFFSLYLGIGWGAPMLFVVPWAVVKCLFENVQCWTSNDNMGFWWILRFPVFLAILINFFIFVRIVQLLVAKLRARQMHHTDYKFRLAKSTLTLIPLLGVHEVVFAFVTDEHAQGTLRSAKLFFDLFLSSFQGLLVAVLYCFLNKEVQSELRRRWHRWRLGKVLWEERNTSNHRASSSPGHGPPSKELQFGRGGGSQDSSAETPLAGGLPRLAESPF

Sequence of Glucagon-like peptide 1 receptor (P43220 whole entry): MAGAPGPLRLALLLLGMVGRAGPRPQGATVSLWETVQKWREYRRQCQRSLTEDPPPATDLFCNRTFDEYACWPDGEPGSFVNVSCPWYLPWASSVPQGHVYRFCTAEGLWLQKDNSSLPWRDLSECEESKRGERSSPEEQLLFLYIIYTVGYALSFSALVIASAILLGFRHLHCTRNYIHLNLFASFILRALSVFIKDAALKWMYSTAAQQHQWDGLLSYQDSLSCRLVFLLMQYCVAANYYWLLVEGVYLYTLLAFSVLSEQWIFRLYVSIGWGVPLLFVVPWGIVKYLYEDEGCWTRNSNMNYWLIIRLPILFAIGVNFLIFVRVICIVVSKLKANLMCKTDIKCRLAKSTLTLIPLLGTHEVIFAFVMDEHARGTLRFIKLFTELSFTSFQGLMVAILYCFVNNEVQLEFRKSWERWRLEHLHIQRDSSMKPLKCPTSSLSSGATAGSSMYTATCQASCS

CCCCCCCCCCCCCCCC(=O)N[C@@H](CCC(=O)N[C@@H](CCC(=O)NCCCC[C@H](NC(=O)[C@H](CC(=O)O)NC(=O)[C@H](CO)NC(=O)[C@@H](NC(=O)[C@H](Cc1ccccc1)NC(=O)[C@@H](NC(=O)CNC(=O)[C@H](CCC(N)=O)NC(=O)[C@@H](CO)NC(=O)[C@@H](N)Cc1c[nH]cn1)[C@@H](C)O)[C@@H](C)O)C(=O)N[C@@H](CO)C(=O)N[C@@H](CCCCN)C(=O)N[C@@H](Cc1ccc(O)cc1)C(=O)N[C@@H](CC(C)C)C(=O)N[C@@H](CC(=O)O)C(=O)N[C@@H](CCC(=O)O)C(=O)N[C@@H](CCCNC(=N)N)C(=O)N[C@@H](C)C(=O)N[C@@H](C)C(=O)N[C@@H](CCCCNC(=O)COCCOCCNC(=O)CCCCN=[N+]=[N-])C(=O)N[C@@H](CC(=O)O)C(=O)N[C@@H](Cc1ccccc1)C(=O)N[C@H](C(=O)N[C@@H](CCC(N)=O)C(=O)N[C@@H](Cc1c[nH]c2ccccc12)C(=O)N[C@@H](CC(C)C)C(=O)N[C@@H](CC(C)C)C(=O)N[C@@H](CC(=O)O)C(=O)N[C@H](C(N)=O)[C@@H](C)O)C(C)C)C(=O)O)C(=O)O
Ratio EC50 (Homo sapiens): 0.8

CCCCCCCCCCCCCCCC(=O)N[C@@H](CCC(=O)N[C@@H](CCC(=O)NCCCC[C@H](NC(=O)[C@H](CC(=O)O)NC(=O)[C@H](CO)NC(=O)[C@@H](NC(=O)[C@H](Cc1ccccc1)NC(=O)[C@@H](NC(=O)CNC(=O)[C@H](CCC(N)=O)NC(=O)[C@@H](CO)NC(=O)[C@@H](N)Cc1cnc[nH]1)[C@@H](C)O)[C@@H](C)O)C(=O)N[C@@H](CO)C(=O)N[C@@H](CCCCN)C(=O)N[C@@H](Cc1ccc(O)cc1)C(=O)N[C@@H](CC(C)C)C(=O)N[C@@H](CC(=O)O)C(=O)N[C@@H](C)C(=O)N[C@@H](CCCNC(=N)N)C(=O)N[C@@H](C)C(=O)N[C@@H](C)C(=O)N[C@@H](CCC(N)=O)C(=O)N[C@@H](CC(=O)O)C(=O)N[C@@H](Cc1ccccc1)C(=O)N[C@H](C(=O)N[C@@H](CCC(N)=O)C(=O)N[C@@H](Cc1c[nH]c2ccccc12)C(=O)N[C@@H](CC(C)C)C(=O)N[C@@H](CC(C)C)C(=O)N[C@@H](CC(=O)O)C(=O)N[C@H](C(N)=O)[C@@H](C)O)C(C)C)C(=O)O)C(=O)O
Ratio EC50 (Homo sapiens): 0.9

CCCCCCCCCCCCCCCC(=O)N[C@@H](CCC(=O)N[C@@H](CCC(=O)NCCCC[C@H](NC(=O)[C@H](CC(=O)O)NC(=O)[C@H](CO)NC(=O)[C@@H](NC(=O)[C@H](Cc1ccccc1)NC(=O)[C@@H](NC(=O)CNC(=O)[C@H](CCC(N)=O)NC(=O)[C@@H](CO)NC(=O)[C@@H](N)Cc1c[nH]cn1)[C@@H](C)O)[C@@H](C)O)C(=O)N[C@@H](CO)C(=O)N[C@@H](CCCCN)C(=O)N[C@@H](Cc1ccc(O)cc1)C(=O)N[C@@H](CC(C)C)C(=O)N[C@@H](CC(=O)O)C(=O)N[C@@H](CCC(=O)O)C(=O)N[C@@H](CCCNC(=N)N)C(=O)N[C@@H](C)C(=O)N[C@@H](C)C(=O)N[C@@H](CCC(N)=O)C(=O)N[C@@H](CCCCN=[N+]=[N-])C(=O)N[C@@H](Cc1ccccc1)C(=O)N[C@H](C(=O)N[C@@H](CCC(N)=O)C(=O)N[C@@H](Cc1c[nH]c2ccccc12)C(=O)N[C@@H](CC(C)C)C(=O)N[C@@H](CC(C)C)C(=O)N[C@@H](CC(=O)O)C(=O)N[C@H](C(N)=O)[C@@H](C)O)C(C)C)C(=O)O)C(=O)O
Ratio EC50 (Homo sapiens): 0.5 | EC50 [1]: 0.028 nM | EC50 (Glucagon receptor): 0.013 nM

CCCCCCCCCCCCCCCC(=O)N[C@@H](CCC(=O)N[C@@H](CCC(=O)NCCCC[C@H](NC(=O)[C@H](CC(=O)O)NC(=O)[C@H](CO)NC(=O)[C@@H](NC(=O)[C@H](Cc1ccccc1)NC(=O)[C@@H](NC(=O)CNC(=O)[C@H](CCC(N)=O)NC(=O)[C@@H](CO)NC(=O)[C@@H](N)Cc1c[nH]cn1)[C@@H](C)O)[C@@H](C)O)C(=O)N[C@@H](CO)C(=O)N[C@@H](CC(C)C)C(=O)N[C@@H](Cc1ccc(O)cc1)C(=O)N[C@@H](CC(C)C)C(=O)N[C@@H](CC(=O)O)C(=O)NC(C)(C)C(=O)N[C@@H](CCCNC(=N)N)C(=O)N[C@@H](C)C(=O)N[C@@H](C)C(=O)N[C@@H](CCC(N)=O)C(=O)N[C@@H](CC(=O)O)C(=O)N[C@@H](Cc1ccccc1)C(=O)N[C@H](C(=O)N[C@@H](CCC(N)=O)C(=O)N[C@@H](Cc1c[nH]c2ccccc12)C(=O)N[C@@H](CC(C)C)C(=O)N[C@@H](CC(C)C)C(=O)N[C@@H](CC(N)=O)C(=O)N[C@H](C(=O)N[C@@H](CCCCN=[N+]=[N-])C(=O)N[C@@H](CCC(N)=O)C(=O)O)[C@@H](C)O)C(C)C)C(=O)O)C(=O)O
EC50 [1]: 1.04 nM

CCCCCCCCCCCCCCCC(=O)N[C@@H](CCC(=O)N[C@@H](CCC(=O)NCCCC[C@H](NC(=O)[C@H](CC(=O)O)NC(=O)[C@H](CO)NC(=O)[C@@H](NC(=O)[C@H](Cc1ccccc1)NC(=O)[C@@H](NC(=O)CNC(=O)[C@H](CCC(N)=O)NC(=O)C(C)(C)NC(=O)[C@@H](N)Cc1c[nH]cn1)[C@@H](C)O)[C@@H](C)O)C(=O)N[C@@H](CO)C(=O)N[C@@H](CCCCN)C(=O)N[C@@H](Cc1ccc(O)cc1)C(=O)N[C@@H](CC(C)C)C(=O)N[C@@H](CC(=O)O)C(=O)NC(C)(C)C(=O)N[C@@H](CCCNC(=N)N)C(=O)N[C@@H](C)C(=O)N[C@@H](C)C(=O)N[C@@H](CCC(N)=O)C(=O)N[C@@H](CC(=O)O)C(=O)N[C@@H](Cc1ccccc1)C(=O)N[C@H](C(=O)N[C@@H](CCC(N)=O)C(=O)N[C@@H](Cc1c[nH]c2ccccc12)C(=O)N[C@@H](CC(C)C)C(=O)N[C@@H](CC(C)C)C(=O)N[C@@H](CC(=O)O)C(=O)N[C@H](C(=O)N[C@@H](CCCCN)C(=O)N[C@@H](CCCCN=[N+]=[N-])C(N)=O)[C@@H](C)O)C(C)C)C(=O)O)C(=O)O
Ratio EC50 (Homo sapiens): 1.4
